Measured values published in article PMC4824433, “A Carbapenem-Resistant Pseudomonas aeruginosa Isolate Harboring Two Copies of blaIMP-34 Encoding a Metallo-β-Lactamase” (PLoS ONE, 2016).
≈ marks a conversion by molar mass, not a printed value.

What was measured:
[1] = test system: T1, E. coli DH5α (pHSG398/IMP-1); test: microbe, parasite or virus in culture; parameters: CLSI microdilution susceptibility test, minimum inhibitory concentration of bacterial growth; details: Escherichia coli, read-out: MIC (μg/ml) / E. coli DH5α (pHSG398/IMP-1)
T1 construct: DH5α (pHSG398/IMP-1) transformant expressing blaIMP-1 from pHSG398
Method: (§1) The ORFs of blaIMP-1 and blaIMP-34 were amplified by PCR using the primers EcoRI-IMP-1/34-F(5′-gggGAATTCatgagcaagttatctgtattc-3′; uppercase letters indicate an EcoRI digestion site) and PstI-IMP-1/34-R (5′-aaaCTGCAGttagttgcttggttttgatgg-3′; uppercase letters indicate a PstI digestion site). […] The plasmids were used to transform DH5α, and transformants were selected on LB agar containing 30 μg/mL of chloramphenicol, and their susceptibilities to various β-lactams were assayed. P. aeruginosa NCGM2.S1 harboring blaIMP-1 was used as a reference strain [12].

E. coli DH5α (pHSG398) = test system: T2, E. coli DH5α (pHSG398); test: microbe, parasite or virus in culture; parameters: CLSI microdilution susceptibility test, minimum inhibitory concentration of bacterial growth; details: Escherichia coli; empty vector control; read-out: MIC (μg/ml) / E. coli DH5α (pHSG398)
T2 construct: DH5α (pHSG398) empty vector control
Method: as §1

P. aeruginosa NCGM1984 = test system: T3, P. aeruginosa NCGM1984; test: microbe, parasite or virus in culture; parameters: CLSI microdilution susceptibility test, minimum inhibitory concentration of bacterial growth; details: clinical isolate carrying two copies of blaIMP-34; for MIC: Pseudomonas aeruginosa, NCGM1984, read-out: MIC (μg/ml) / P. aeruginosa NCGM1984
T3 construct: NCGM1984 (clinical isolate, ST235, two chromosomal copies of blaIMP-34)

[2] = test system: CO/N=C(\C(=O)N[C@@H]1C(=O)N2C(C(=O)O)=C(COC(C)=O)CS[C@H]12)c1csc(N)n1; test: purified protein; details: 50 mM Tris-HCl pH 7.4, 5 μM Zn(NH3)2, 37°C
Excerpt: (§2) UV-visible spectrophotometry, initial rates, Lineweaver-Burk plots on IMP-1

[3] = test system: C[C@@H](O)[C@H]1C(=O)N2C(C(=O)O)=C(SCCN=CN)C[C@H]12; test: purified protein; details: 50 mM Tris-HCl pH 7.4, 5 μM Zn(NH3)2, 37°C
Excerpt: as §2

[4] = test system: C[C@@H](O)[C@H]1C(=O)N2C(C(=O)O)=C(S[C@@H]3CN[C@H](CNS(N)(=O)=O)C3)[C@H](C)[C@H]12; test: purified protein; details: 50 mM Tris-HCl pH 7.4, 5 μM Zn(NH3)2, 37°C
Excerpt: as §2

[5] = test system: C[C@@H](O)[C@H]1C(=O)N2C(C(=O)O)=C(S[C@@H]3CN[C@H](C(=O)N(C)C)C3)[C@H](C)[C@H]12; test: purified protein; details: 50 mM Tris-HCl pH 7.4, 5 μM Zn(NH3)2, 37°C
Excerpt: as §2

[6] = test system: CC1=C(C(=O)O)N2C(=O)[C@@H](NC(=O)[C@H](N)C3=CCC=CC3)[C@H]2SC1; test: purified protein; details: 50 mM Tris-HCl pH 7.4, 5 μM Zn(NH3)2, 37°C
Excerpt: as §2

[7] = test system: CC1(C)S[C@@H]2[C@H](NC(=O)Cc3ccccc3)C(=O)N2[C@H]1C(=O)O; test: purified protein; details: 50 mM Tris-HCl pH 7.4, 5 μM Zn(NH3)2, 37°C
Excerpt: as §2

[8] = test system: CC1(C)S[C@@H]2[C@H](NC(=O)[C@H](N)c3ccccc3)C(=O)N2[C@H]1C(=O)O; test: purified protein; details: 50 mM Tris-HCl pH 7.4, 5 μM Zn(NH3)2, 37°C
Excerpt: as §2

[9] = test system: CO[C@@]1(NC(=O)Cc2cccs2)C(=O)N2C(C(=O)O)=C(COC(N)=O)CS[C@@H]21; test: purified protein; details: 50 mM Tris-HCl pH 7.4, 5 μM Zn(NH3)2, 37°C
Excerpt: as §2

[10] = test system: CO/N=C(\C(=O)N[C@@H]1C(=O)N2C(C(=O)[O-])=C(C[N+]3(C)CCCC3)CS[C@H]12)c1csc(N)n1; test: purified protein; details: 50 mM Tris-HCl pH 7.4, 5 μM Zn(NH3)2, 37°C
Excerpt: as §2

[11] = test system: CC(C)(O/N=C(\C(=O)N[C@@H]1C(=O)N2C(C(=O)[O-])=C(C[n+]3ccccc3)CS[C@H]12)c1csc(N)n1)C(=O)O; test: purified protein; details: 50 mM Tris-HCl pH 7.4, 5 μM Zn(NH3)2, 37°C
Excerpt: as §2

Molecule: CO[C@@]1(NC(=O)Cc2cccs2)C(=O)N2C(C(=O)O)=C(COC(N)=O)CS[C@@H]21 [Cefoxitin]
- MIC [1]: 512 µg/mL (≈ 1200 µM)
- MIC (E. coli DH5α (pHSG398)): 2 µg/mL (≈ 4.68 µM)
- MIC (P. aeruginosa NCGM1984): > 1020 µg/mL

Molecule: C[C@@H](O)[C@H]1C(=O)N2C(C(=O)O)=C(S[C@@H]3CN[C@H](CNS(N)(=O)=O)C3)[C@H](C)[C@H]12 [Doripenem]
- MIC [1]: 0.25 µg/mL (≈ 0.595 µM)
- MIC (E. coli DH5α (pHSG398)): ≤ 0.25 µg/mL
- MIC (P. aeruginosa NCGM1984): > 1020 µg/mL

Molecule: CC1=C(C(=O)O)N2C(=O)[C@@H](NC(=O)[C@H](N)C3=CCC=CC3)[C@H]2SC1 [Cephradine]
- MIC [1]: 256 µg/mL (≈ 733 µM)
- MIC (E. coli DH5α (pHSG398)): 16 µg/mL (≈ 45.8 µM)
- MIC (P. aeruginosa NCGM1984): > 1020 µg/mL

Molecule: CO/N=C(\C(=O)N[C@@H]1C(=O)N2C(C(=O)O)=C(COC(N)=O)CS[C@H]12)c1ccco1 [Cefuroxime]
- MIC [1]: 256 µg/mL (≈ 603 µM)
- MIC (E. coli DH5α (pHSG398)): 4 µg/mL (≈ 9.43 µM)
- MIC (P. aeruginosa NCGM1984): > 1020 µg/mL

Molecule: CO/N=C(\C(=O)N[C@@H]1C(=O)N2C(C(=O)[O-])=C(C[n+]3ccn4ncccc43)CS[C@H]12)c1nsc(N)n1 [Cefozopran]
- MIC [1]: 4 µg/mL (≈ 7.76 µM)
- MIC (E. coli DH5α (pHSG398)): ≤ 0.25 µg/mL
- MIC (P. aeruginosa NCGM1984): > 1020 µg/mL

Molecule: C[C@@H](O)[C@H]1C(=O)N2C(C(=O)O)=C(SCCN=CN)C[C@H]12 [Imipenem]
- MIC [1]: 0.5 µg/mL (≈ 1.67 µM)
- MIC (E. coli DH5α (pHSG398)): ≤ 0.25 µg/mL
- MIC (P. aeruginosa NCGM1984): 512 µg/mL (≈ 1710 µM)

Molecule: C[C@H]1[C@H](NC(=O)/C(=N\OC(C)(C)C(=O)O)c2csc(N)n2)C(=O)N1S(=O)(=O)O [Aztreonam]
- MIC [1]: ≤ 0.25 µg/mL
- MIC (E. coli DH5α (pHSG398)): ≤ 0.25 µg/mL
- MIC (P. aeruginosa NCGM1984): 64 µg/mL (≈ 147 µM)

Molecule: IMP-1 (Serratia marcescens)
- Km [2]: 13 ± 2 µM
- kcat [2]: 2.8 ± 0.1 s⁻¹
- kcat/Km [2]: 220000 M⁻¹ s⁻¹
- Km [3]: 58 ± 14 µM
- kcat [3]: 6.9 ± 0.5 s⁻¹
- kcat/Km [3]: 120000 M⁻¹ s⁻¹
- Km [4]: 39 ± 8 µM
- kcat [4]: 4.8 ± 0.1 s⁻¹
- kcat/Km [4]: 130000 M⁻¹ s⁻¹
- Km [5]: 37 ± 12 µM
- kcat [5]: 2.3 ± 0.2 s⁻¹
- kcat/Km [5]: 66000 M⁻¹ s⁻¹
- Km [6]: 73 ± 2 µM
- kcat [6]: 21 ± 1 s⁻¹
- kcat/Km [6]: 290000 M⁻¹ s⁻¹
- Km [7]: 685 ± 99 µM
- kcat [7]: 94 ± 12 s⁻¹
- kcat/Km [7]: 140000 M⁻¹ s⁻¹
- Km [8]: 341 ± 17 µM
- kcat [8]: 16 ± 1 s⁻¹
- kcat/Km [8]: 48000 M⁻¹ s⁻¹
- Km [9]: 34 ± 5 µM
- kcat [9]: 2.7 ± 0.1 s⁻¹
- kcat/Km [9]: 80000 M⁻¹ s⁻¹
- Km [10]: 22 ± 8 µM
- kcat [10]: 1.4 ± 0.2 s⁻¹
- kcat/Km [10]: 68000 M⁻¹ s⁻¹
- Km [11]: 26 ± 1 µM
- kcat [11]: 0.68 ± 0.01 s⁻¹
- kcat/Km [11]: 26000 M⁻¹ s⁻¹

Molecule: CC1(C)S[C@@H]2[C@H](NC(=O)[C@H](N)c3ccccc3)C(=O)N2[C@H]1C(=O)O [Ampicillin]
- MIC [1]: 32 µg/mL (≈ 91.6 µM)
- MIC (E. coli DH5α (pHSG398)): 2 µg/mL (≈ 5.72 µM)
- MIC (P. aeruginosa NCGM1984): > 1020 µg/mL

Molecule: CO/N=C(\C(=O)N[C@@H]1C(=O)N2C(C(=O)[O-])=C(C[n+]3cccc4c3CCC4)CS[C@H]12)c1csc(N)n1 [Cefpirome]
- MIC [1]: 0.25 µg/mL (≈ 0.486 µM)
- MIC (E. coli DH5α (pHSG398)): ≤ 0.25 µg/mL
- MIC (P. aeruginosa NCGM1984): 512 µg/mL (≈ 995 µM)

Molecule: CO/N=C(\C(=O)N[C@@H]1C(=O)N2C(C(=O)[O-])=C(C[N+]3(C)CCCC3)CS[C@H]12)c1csc(N)n1 [Cefepime]
- MIC (P. aeruginosa NCGM1984): > 1020 µg/mL

Molecule: CO[C@@]1(NC(=O)C(C(=O)O)c2ccc(O)cc2)C(=O)N2C(C(=O)O)=C(CSc3nnnn3C)CO[C@@H]21 (stereo partly shown) [Moxalactam]
- MIC [1]: 64 µg/mL (≈ 123 µM)
- MIC (E. coli DH5α (pHSG398)): ≤ 0.25 µg/mL
- MIC (P. aeruginosa NCGM1984): > 1020 µg/mL

Molecule: CC(C)(O/N=C(\C(=O)N[C@@H]1C(=O)N2C(C(=O)[O-])=C(C[n+]3ccccc3)CS[C@H]12)c1csc(N)n1)C(=O)O [Ceftazidime]
- MIC [1]: 512 µg/mL (≈ 937 µM)
- MIC (E. coli DH5α (pHSG398)): ≤ 0.25 µg/mL
- MIC (μg/ml) / P. aeruginosa NCGM1984 (P. aeruginosa NCGM1984): > 1,024 ug/mL

Molecule: C[C@@H](O)[C@H]1C(=O)N2C(C(=O)O)=C(S[C@@H]3CN[C@H](C(=O)N(C)C)C3)[C@H](C)[C@H]12 [Meropenem]
- MIC [1]: 0.5 µg/mL (≈ 1.3 µM)
- MIC (E. coli DH5α (pHSG398)): ≤ 0.25 µg/mL
- MIC (P. aeruginosa NCGM1984): > 1020 µg/mL

Molecule: CC1(C)S[C@@H]2[C@H](NC(=O)Cc3ccccc3)C(=O)N2[C@H]1C(=O)O [Penicillin G]
- MIC [1]: 128 µg/mL (≈ 383 µM)
- MIC (E. coli DH5α (pHSG398)): 32 µg/mL (≈ 95.7 µM)
- MIC (P. aeruginosa NCGM1984): > 1020 µg/mL

Molecule: CO/N=C(\C(=O)N[C@@H]1C(=O)N2C(C(=O)O)=C(CSc3nc(=O)c(O)nn3C)CS[C@H]12)c1csc(N)n1 [Ceftriaxone]
- MIC [1]: 64 µg/mL (≈ 115 µM)
- MIC (E. coli DH5α (pHSG398)): ≤ 0.25 µg/mL
- MIC (P. aeruginosa NCGM1984): > 1020 µg/mL

Molecule: CO/N=C(\C(=O)N[C@@H]1C(=O)N2C(C(=O)O)=C(COC(C)=O)CS[C@H]12)c1csc(N)n1 [Cefotaxime]
- MIC [1]: 16 µg/mL (≈ 35.1 µM)
- MIC (E. coli DH5α (pHSG398)): ≤ 0.25 µg/mL
- MIC (P. aeruginosa NCGM1984): > 1020 µg/mL
